AUC and Plasma levels data for one compound are collected here from patent US20110207760A1, “SN-38 COMPOSITIONS” (priority 2010, published 2011).

The nature of this series: Pharmacokinetics of SN-38 and SN-38G after i.v. dosing of SN-38 in 40% SBECD. To be noted: rat, i.v. In kind it is in vivo, Female Sprague-Dawley rats. On the procedure: Female Sprague-Dawley rats, 4 animals per group received i.v. injections of SN-38 (doses 0.65 mg/kg and 2 mg/kg) in 40% SBECD. The SN-38 solution for the treatment was prepared by the dilution of concentrated composition of the Example 1 with water. The blood plasma samples were collected from each group of animals, extracted using liquid extraction with cold methanol/acetonitrile mixture (1:1 v/v), and analyzed using a HPLC method with fluorescent detection. The results, including levels of SN-38 and SN-38G in plasma and calculated values of area under the curve (AUC) for SN-38 and SN-38G are presented in Tables 5 and 6 below.

A word on the AUC: it is concentration integrated over time. A lower AUC goes with less exposure. `CCc1c2c(nc3ccc(O[C@@H]4O[C@H](C(=O)O)[C@@H](O)[C@H](O)[C@H]4O)cc13)-c1cc3c(c(=O)n1C2)COC(=O)[C@]3(O)CC` [SN-38G, SN-38 glucuronide]: the AUC turned out to be 275 ng·h/mL (dosing SN-38 0.65 mg/kg in 40% SBECD) and 1085 ng·h/mL (dosing SN-38 2 mg/kg in 40% SBECD). Further, the Plasma levels runs as follows: (dosing SN-38 0.65 mg/kg in 40% SBECD, 0.17 h) 266.5 ng/mL; (dosing SN-38 0.65 mg/kg in 40% SBECD, 0.5 h) 150.7 ng/mL; (dosing SN-38 0.65 mg/kg in 40% SBECD, 0.75 h) 97.1 ng/mL; (dosing SN-38 0.65 mg/kg in 40% SBECD, 1 h) 61.5 ng/mL; (dosing SN-38 0.65 mg/kg in 40% SBECD, 3 h) 15.7 ng/mL; (dosing SN-38 0.65 mg/kg in 40% SBECD, 6 h) 6.0 ng/mL. The Plasma levels by setting is: (dosing SN-38 2 mg/kg in 40% SBECD, 0.17 h) 1282.0 ng/mL; (dosing SN-38 2 mg/kg in 40% SBECD, 0.5 h) 747.7 ng/mL; (dosing SN-38 2 mg/kg in 40% SBECD, 0.75 h) 289.8 ng/mL; (dosing SN-38 2 mg/kg in 40% SBECD, 1 h) 239.9 ng/mL; (dosing SN-38 2 mg/kg in 40% SBECD, 3 h) 27.6 ng/mL; (dosing SN-38 2 mg/kg in 40% SBECD, 6 h) 18.5 ng/mL.
